Measurements as given in the METLIN SMRT retention time set (Domingo-Almenara et al. 2019).

Assay: gradient 5% acetonitrile 3 min, to 50% in 2 min, to 85% in 15 min, held 3 min, 100 µL/min
Conditions: column: Zorbax Extend-C18 2.1 x 50 mm; eluents: water / acetonitrile, 0.1% formic acid
Outline: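 Pure standards were analyzed in mixtures of ~100 molecules using HPLC coupled to a quadrupole time-of-flight mass spectrometer, in both positive and negative ionization mode. Separation used a Zorbax Extend-C18 column (2.1 × 50 mm, 1.8 μm) at 100 μL/min, with water and acetonitrile each containing 0.1% formic acid. Dead and dwell volumes were 40 μL and 900 μL, and data were collected over 3 months. Retention time was read from computationally picked adduct peaks, each inspected manually.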

Row | Compound | RP-LC retention time
1 | Cc1ccc(-c2noc(-c3cccc(S(=O)(=O)Nc4ccccc4)c3)n2)cc1 | 1200 s
2 | NC1=NCC2c3ccccc3Cc3ccccc3N12 (centres undefined) | 707 s
3 | Cc1cnc(C2CC2)n1C1CCN(C(=O)C2(c3ccccc3)CC2)CC1 | 636 s
4 | Cc1nc2c(c(N(C)CCc3c(C)nn(C)c3C)n1)CCC2 | 588 s
5 | O=C(Nc1ccccc1)C(=O)Nc1ccccc1[N+](=O)[O-] | 917 s
6 | CCOc1ccc(-c2noc(Cn3c(=O)n(CCCOC)c(=O)c4ccccc43)n2)cc1OC | 956 s
7 | O=C1CN=C(c2ccc[nH]2)c2cc(Cl)ccc2N1 | 650 s
8 | Cc1ccc(Nc2c(-c3cccc(O)c3)nc3cnccn23)cc1Br | 834 s
9 | CCN(CC)c1nc2cc(C(=O)NCCC(C)C)ccc2c(=O)n1-c1ccccc1 | 1090 s
10 | CCCC(=O)Nc1nc2ccc(CCC(=O)Nc3cccc(C(=O)OCC)c3)cc2s1 | 950 s
11 | CS(=O)(=O)Nc1ccc(-c2noc(-c3ccc4c(c3)OCO4)n2)cc1 | 897 s
12 | Cc1noc(C)c1CNC(=O)c1ccc2[nH]ccc2c1 | 574 s
13 | CCN(C(=O)CN1C(=O)CCCc2cc(S(=O)(=O)N3CCC(C)CC3)ccc21)c1ccccc1 | 1050 s
14 | Cc1cc(NC(=O)C2CCN(S(=O)(=O)c3cn(C)cn3)CC2)ccc1Br | 802 s
15 | CCOc1ccc(S(=O)(=O)N2CCCC(C(=O)Nc3cccc(C)c3)C2)cc1 (centres undefined) | 1050 s
16 | CC(C)NCc1ccc(-c2cc(Cl)ccc2Cl)o1 | 709 s
17 | CN(C)c1cccc(-c2nc(-c3ccc4c(c3)ncn4CCC(=O)N3CCCC3)no2)c1 | 794 s
18 | CC(C)CCNc1ccc(-c2nc(-c3ccc(F)cc3)no2)cn1 | 1230 s
19 | COc1ccc(-c2nc(Cn3c(=O)c4c(C)cc(C)nc4n(C)c3=O)c(C)o2)cc1OC | 1100 s
20 | Cn1c(=O)c2cc(C(=O)Nc3ccc(Cl)cc3)cnc2n(-c2ccccc2)c1=O | 962 s
21 | O=C(CNC(=O)c1ccc(=O)[nH]c1)NCCOc1ccc(F)cc1 | 583 s
22 | CC1CCN(c2cc(-c3noc(C(=O)N4CCc5ccccc5C4)n3)ccn2)CC1 | 1010 s

Row | Compound | RP-LC retention time
23 | COc1ccc(-c2c(C)noc2NC(C)=O)cc1S(=O)(=O)N(C)c1ccc(C)cc1 | 830 s
24 | CC(=O)N1CCc2cc(N3CC(C(=O)Nc4cccc(Cl)c4C)CC3=O)ccc21 (centres undefined) | 723 s
25 | Cc1ccc(C)c(NC(=O)C2CCN(S(=O)(=O)c3ccc4c(c3)NC(=O)C(C)O4)CC2)c1 (centres undefined) | 824 s
26 | Cc1ccc(Nc2c(-c3ccc(O)cc3)nc3ccc(Br)cn23)cc1 | 726 s
27 | CC1CCCN(S(=O)(=O)c2ccc(-c3nnc(C(C)C)o3)o2)C1 (centres undefined) | 977 s
28 | CCCCNC(=O)c1ccc2c(c1)NC(=O)C1CCCCN21 (centres undefined) | 759 s
29 | O=C(CCCn1nc(-c2cccs2)ccc1=O)Nc1cccc2nsnc12 | 728 s
30 | COc1ccc(OC)c(-c2csc(-c3nnn(-c4ccc(C)cc4)c3N)n2)c1 | 1160 s
31 | Cc1cccc(NC(=O)COc2ccc(-c3cnc4ccccc4n3)cc2)n1 | 911 s
32 | CN(C)c1cccc(-c2nc(-c3ccc(CNC(=O)C4CC4)s3)no2)c1 | 680 s
33 | CCS(=O)(=O)N1CCC(Cn2c(C)cnc2-c2ccccc2)C1 (centres undefined) | 576 s
34 | CCN1C(=O)c2cccnc2Sc2cc(CNC(=O)Cc3cccc(F)c3)ccc21 | 761 s
35 | COc1ccc(-c2nnc(COc3cccc(NC(=O)c4ccsc4)c3)o2)cc1 | 914 s
36 | CCCCC(=O)Nc1ccc2nc(N3CCN(C)CC3)cc(C(=O)O)c2c1 | 571 s
37 | CCSc1nnc(NC(=O)C2CCCN(c3ccc(-c4ccco4)nn3)C2)s1 (centres undefined) | 672 s
38 | CCCCOc1ccc(C(=O)N2CCOC(c3ccccc3)C2)cc1 (centres undefined) | 1060 s
39 | O=S(=O)(Cc1ccccc1)N1CCCC(c2nnnn2-c2ccccc2)C1 (centres undefined) | 905 s
40 | CC(C)N1CCN(C(=O)c2cc(-c3ccccc3)n[nH]2)CC1 | 589 s
41 | Cc1ccc(Nc2nc(C)cc(N3CCN(S(=O)(=O)c4ccc(C(F)(F)F)cc4)CC3)n2)cc1 | 851 s
42 | COc1ccc(-c2nc(-c3ccc4c(c3)ncn4CCN3CCOCC3)no2)c(C)c1 | 666 s
43 | Cc1ccc(C2CCCN2C(=O)c2cc(-c3ccco3)on2)cc1 (centres undefined) | 1020 s
44 | CC(C)CNC(=O)Cn1c(C(C)C)nc2ccccc21 | 601 s
